The values below come from patent US12560591B2, “Methods of treatment with CD8 T cell-mediated immune therapy” (Providence Health & Services—Oregon, priority 2019, dated 2026).

Assay [1] concerns peripheral blood CD3^+CD4^−CXCR3^+ T cells. Nature of the assay: HNSCC patients, neoadjuvant anti-PD-1: peripheral blood CXCR3+ T cells. The assay is classed as in vivo, human. To be noted: one week after first dose of nivolumab 240 mg IV, FIG. 13B. As for the experimental part: FIGS. 13A-13D are a series of panels showing change in CXCR3^+ cells in response to checkpoint blockade. […] Peripheral blood was drawn at baseline and one week after anti-PD-1 therapy (nivolumab). Surgery was performed at week six for pathologic assessment. […] Patients are grouped by nodal status following neoadjuvant treatment (ypN). FIGS. 13C and 13D show HPV+ patients from FIG. 13B and HPV-patients from FIG. 13B, respectively. Given the low number of patient(s) with residual nodal disease (ypN+), statistics could not be accurately performed in the HPV+ and HPV− subgroups.
Patients with locoregionally advanced HNSCC were treated with anti-PD-1 (nivolumab, 240 mg, IV) three times Q2W. Radiation was administered following the first anti-PD-1 treatment, and surgery was performed at week 6 to assess pathologic status. Patients also received stereotactic body radiation therapy (SBRT) following the first dose of nivolumab. Peripheral blood was drawn at baseline and one week after administration of the first dose of nivolumab. […] As HPV+ and HPV-HNSCC have marked differences in natural history and/or behavior, these cohorts were also analyzed separately (FIGS. 13C and 13D). When comparing response to neoadjuvant therapy in the HPV+ and HPV− cohorts separately, the change in percent CXCR3^+CD3^+CD4^− T cells was more distinct.

A further assay concerns CT26 tumors. Nature of the assay: CT26 tumor model: ALK5 inhibitor with chemoradiation (RT+5FU), tumor growth and survival. The assay is classed as in vivo, mouse. The settings on record: FIG. 6B. As to the method: FIGS. 1A-1D are a series of panels showing that the TGFβR1 antagonist LY2157299 enhances chemo-radiation efficacy dependent on CD8α^+ cells in CT26 tumors. FIG. 1A is a treatment schema in the CT26 tumor model. Six to eight week old BALB/c mice were implanted subcutaneously in the left flank with 2×10^5 CT26 tumor cells. Seven days following implant, animals were randomized based on tumor size, and vehicle control or LY2157299 compound were administered by oral gavage twice daily every 12 hours at 150 mg/kg for 7 consecutive days. At day 14, some mice received five consecutive radiation treatments of 5 Gy targeted to tumor tissue along with 25 mg/kg injections of 5-fluorouracil (5FU) chemotherapy administered intraperitoneally on days 14, 16, and 18. LY treatment groups resumed BID oral dosing from days 21-27. Mean tumor growth (i) and survival (ii) were assessed three times per week up to 100 days or death (FIG. 1B). […] Arrows identify pSMAD2^+CD8^+ cells in vehicle mice. […] NS=not significant, *=p<0.05, **=p<0.01, ***=p<0.001.
(§1) FIGS. 6A-6D are a series of panels showing generation of tumor-specific immune memory following tumor eradication with TGFβ inhibition with chemoradiation. […] The number of mice cured over the total number of mice in each group is indicated in the top right corner. One representative experiment is shown reflective of two independent experiments. Mice who eradicated their tumors were rechallenged with CT26 and 4T1 tumors. CT26 tumor cells were rechallenged on the opposite flank as from the original cured tumor. In FIG. 6D, 4T1 and CT26 tumor establishment and growth was followed for up to 60 days post re-challenge. The number of tumors rejected per total mice rechallenged in each tumor type is indicated in the top right portion of the graph. ***=p<0.001
Animal studies and cell culture: C57BL/6, BALB/c, CD8Cre, Lyz2Cre, and Foxp3-eGFP-CreERT2 mice were purchased from the Jackson Laboratories (Bar Harbor, Maine). ALK5flox/flox mice were a generous gift from Andrew Weinberg (Providence Cancer Center). All transgenic mice were on C57BL/6 background. CT26, MC38, 4T1 and MCA205-OVA tumor cells were grown in DMEM medium supplemented with 10% heat-inactivated fetal bovine serum and 1% penicillin-streptomycin to 60-90% confluence prior to tumor implantation. All cells were washed 2× with 1×PBS and implanted subcutaneously in a 100 μl volume of 1×PBS in the lower flanks. 1×10^5 MC38 cells, 2×10^5 CT26 cells, 5×10^4 4 T1 cells, and 5×10^6 MCA205-OVA cells were used for tumor induction. Tumors were measured 3×/week until they reached the survival end-point of 144 mm^2. […] Following single cell preparation, cells were washed and resuspended in FACS buffer (1×PBS, 1% BSA, 2 mM EDTA) and counted prior to FACS staining using a Guava EasyCyte cytometer (Millipore). […]

A further assay relates to CT26 cells. Nature of the assay: Rechallenge of cured mice with CT26 cells. To be noted: cured animals (RT/5-FU/LY3200882), rechallenge at day 73 post-implant, FIG. 6C-D. The assay is classed as in vivo, mouse.
From the text: as §1
(§2) In order to evaluate whether the improved efficacy of RT+5FU+LY (FIG. 1B) was due to the direct effect of ALK5 inhibition on CD8^+ T cells, LY treatment in ALK5^ΔCD8 mice was tested.

For the next assay, the system named is 4T1 cell line. Nature of the assay: Rechallenge of cured mice with 4T1 cells. The assay is classed as in vivo, mouse. The settings on record: cured animals (RT/5-FU/LY3200882), 4T1 implanted simultaneously on opposite flank, FIG. 6C-D.
From the text: as §1, §2

nivolumab: anti-PD-1 antibody: the “change in peripheral blood CD3^+CD4^−CXCR3^+ T cells vs nodal status” value in assay [1] is listed as “decrease in CD3^+CD4^−CXCR3^+ T cells following neoadjuvant nivolumab correlated with clearance of nodal disease”.

With `CC(C)(O)c1cc(Nc2cc(Oc3cn(C4CC4)nc3C3CCOCC3)ccn2)ccn1` [LY3200882], the “tumor cures (animals cured of total)” value with CT26 tumors (CT26, LY3200882 with chemoradiation (RT/5-FU)) is on record as 6 of 7. Moreover, in the assay with CT26 tumors (CT26, LY3200882 with chemoradiation, p<0.001 vs RT+5FU), the median survival entry is reported as “not reached”. The tumor rechallenge outcome in the assay with CT26 cells was “rejected tumor rechallenge”; in the assay on 4T1 cell line it was “but not the immunologically distinct 4T1 cell line”.
